Experimental data: patent publication US20240084258A1, “METHOD FOR PREPARING BROWN ADIPOCYTE” (KYOTO PREFECTURAL PUBLIC UNIVERSITY CORPORATION, priority 2015, published 2024)

What was measured:
Type in all cases: cell-based
[1] = test system: human dermal fibroblasts (HDFs); experiment: UCP1 mRNA response of induced cells to Isoproterenol or FSK stimulation (Example 3); conditions: cells cultured 14 days with T3, Rosiglitazone and D4476, then 10 μM Isoproterenol or FSK for 5 hr; FIG. 3
Procedure: 10 μM Isoproterenol or FSK was added to these cells as described in the Figure. As a control, a group free of the addition was also prepared. After 5 hr, the culture medium was removed from each well by suction, the cells were washed with PBS(−) and total RNA was extracted from the cells with ISOGEN II. qRT-PCR was performed in the same manner as in Example 2. The mRNA level of UCP1 gene was quantified as a ratio to […] gene mRNA and calculated with the value of fibroblast cultured in the normal medium as 1.

[2] = test system: human dermal fibroblasts (HDFs); experiment: UCP1 gene mRNA, comparison of four inhibitors at 4-16 μM (Example 15); conditions: for induction efficiency into brown adipocytes (order): compound at 4, 8, 12 or 16 μM up to Day 9, UCP1 mRNA on day 14, FIG. 15; for UCP1 gene expression (conversion to brown adipocytes): compound at 4, 8, 12 or 16 μM up to Day 9, then without compound Day 9-14, FIG. 15
Procedure: (§1) (Day −1). In the control (Ctrl) group, the culture supernatant of the next day (Day 0) was removed by suction and the cells were cultured in a normal medium up to day 14 while substituting the medium with a fresh one once every other day. In groups other than the control (Ctrl) group, the culture supernatant was removed by suction on day 0, an adipocyte induction medium or an adipocyte induction medium added with any of ALK5 inhibitor II, SB431542, LY2157299 and D4476 at a concentration of 4 μM, 8 μM, 12 μM or 16 μM respectively was added at 1 mL/well.
Thereafter, the cells were cultured in an adipocyte induction medium free of any compound of ALK5 inhibitor II, SB431542, LY215799 and D4476 during Day 9-Day 14.

[3] = test system: human dermal fibroblasts (HDFs); experiment: UCP1 protein immunostaining, comparison of four inhibitors (Example 16); conditions: ALK5 inhibitor II 4 μM, LY2157299 8 μM; for UCP1 protein expression by immunostaining (induction into brown adipocytes): SB431542 4 μM, D4476 4 μM up to Day 9, day 14, FIG. 16A, 16B
Procedure: Thereafter, the cells were cultured in an adipocyte induction medium free of any compound of ALK5 inhibitor II, SB431542, LY215799 and D4476 during Day 9-Day 14. On day 14, the medium was removed by suction from each well, and the cells were washed with PBS(−).

[4] = test system: human dermal fibroblasts (HDFs); experiment: UCP1, CIDEA and KCNK3 gene mRNA by real time RT-PCR (Example 17); conditions: ALK5 inhibitor II 4 μM or LY2157299 8 μM up to Day 9, day 14, FIG. 17
Procedure: as §1, with “and” for “an adipocyte induction medium or”, “II (4 μM) and” for “II, SB431542,”, “(8 μM)” for “and D4476 at a concentration of 4 μM, 8 μM, 12 μM or 16 μM respectively”
Thereafter, the cells were cultured in an adipocyte induction medium free of any compound of ALK5 inhibitor II and LY215799 during Day 9-Day 14. On day 14, the medium was removed by suction from the wells of all groups, and the cells were washed with PBS(−).

[5] = test system: human dermal fibroblasts (HDFs); experiment: PGC-1alpha gene mRNA by real time RT-PCR (Example 5); conditions: induction medium + T3 + Rosiglitazone, FSK 2 μM, PD0325901 1 μM, day 14, FIG. 5
Procedure: (§2) The next day, the culture supernatant was removed by suction and, as described in the Figure, a normal medium, an adipocyte induction medium, or an adipocyte induction medium added with each compound and the like was added at 500 μL/well. […] The concentrations of the additives are as follows: • T3: 1 nM • Rosiglitazone: 1 μM • Pifithrin alpha [p53 inhibitor]: 5 μM • Forskolin (FSK): 2 μM • PD0325901: 1 μM. The culture medium was substituted by a fresh one every 3-4 days and the cells were cultured up to day 14.

[6] = test system: human dermal fibroblasts (HDFs); experiment: UCP1 gene mRNA by real time RT-PCR (Example 2); conditions: induction medium + T3 + Rosiglitazone, D4476 2 μM, FSK 2 μM, PD0325901 1 μM, SB431542 2 μM, day 14, FIG. 2
Procedure: as §2, with “This was seeded in a 24-well plate at a concentration of 1×10^4 cells/well (day 0), and culturing was started at 5% CO2/95% humid air, 37° C. The next” for “The next”, “with each low-molecular compound and” for “with each compound and”, “μM • D4476: 2 μM • Pifithrin alpha” for “μM • Pifithrin alpha”, “PD0325901: 1 μM • SB431542: 2 μM. The” for “PD0325901: 1 μM. The”

[7] = test system: human dermal fibroblasts (HDFs); experiment: AdipoQ gene mRNA by real time RT-PCR (Example 6); conditions: induction medium + T3 + Rosiglitazone, D4476, SB431542, ALK5 Inhibitor II 2 μM, PD0325901 1 μM, day 14, FIG. 6
Procedure: This was seeded in a 24-well plate at a concentration of 1×10^4 cells/well (day 0), and culturing was started at 5% CO2/95% humid air, 37° C. The next day, the culture supernatant was removed by suction and, as described in the Figure, a normal medium, an adipocyte induction medium, or an adipocyte induction medium added with each low-molecular-weight compound and the like was added at 500 μL/well. […] The concentrations of the additives are as follows: • T3: 1 nM • Rosiglitazone: 1 μM • D4476: 2 μM. • Pifithrin alpha [p53 inhibitor]: 5 μM • PD0325901: 1 μM • SB431542: 2 μM • ALK5 Inhibitor II: 2 μM. The culture medium was substituted by a fresh one every 3-4 days and the cells were cultured up to day 14.

[8] = test system: human dermal fibroblasts (HDFs); experiment: UCP1 protein immunostaining, fluorescence intensity (Example 8); conditions: for UCP1 protein expression by immunostaining (conversion to brown adipocytes): induction medium + T3 + Rosiglitazone, D4476, SB431541, ALK5 inhibitor II, FSK 2 μM, PD0325901 1 μM, day 14, FIG. 8A-C
Procedure: as §2, with “[…]: 2 μM • SB431541: 2 μM • ALK5 inhibitor II: 2 μM • PD0325901: 1” for “Pifithrin alpha [p53 inhibitor]: 5”, “2” for “2 μM • PD0325901: 1”, “14. […] The cells were photographed at a magnification of 200 with a fluorescence microscope and the fluorescence intensity was measured.” for “14.”

[9] = test system: human dermal fibroblasts (HDFs); experiment: Oil Red O staining of fibroblasts cultured with compounds (Example 1); conditions: adipocyte induction medium with T3 1 nM and Rosiglitazone 1 μM, D4476 2 μM, SB431542 2 μM, ALK5 Inhibitor II 2 M, Pifithrin alpha 5 μM, day 14, FIG. 1
Procedure: The next day, the culture supernatant was removed by suction and, as described in the Figure, a normal medium, an adipocyte induction medium, or an adipocyte induction medium added with the compound and the like was added at 500 μL/well.
The adipocyte induction medium is a 10% FBS-added DMEM+MDI medium (10% FBS-added DMEM supplemented with 0.5 mM isobutylmethylxanthine (IBMX), 0.5 μM dexamethason and 1 μg/mL Insulin).
The concentrations of the additives are as follows: • T3: 1 nM • Rosiglitazone: 1 μM • D4476: 2 μM • Pifithrin alpha [p53 inhibitor]: 5 μM • SB431542: 2 μM • ALK5 Inhibitor II: […].
The culture medium was substituted by a fresh one every 3-4 days and the cells were cultured up to day 14.
After washing 3 times with sterile distilled water, Oil Red O staining solution was added, and the mixture was incubated at room temperature for 15 min. Then, the cells were washed with sterile distilled water and photographed at a magnification of 100 with a phase contrast microscope.

[10] = test system: human dermal fibroblasts (HDFs); experiment: CIDEA gene mRNA by real time RT-PCR (Example 4); conditions: induction medium + T3 + Rosiglitazone, compounds 2 μM, day 14, FIG. 4
Procedure: The next day, the culture supernatant was removed by suction and, as described in the Figure, a normal medium, an adipocyte induction medium, or an adipocyte induction medium added with each compound and the like was added at 500 μL/well. […] The concentrations of the additives are as follows: • T3: 1 nM • Rosiglitazone: 1 μM • D4476: 2 μM • Pifithrin alpha [p53 inhibitor]: 5 μM • SB431542: 2 μM • ALK5 Inhibitor II: 2 μM. The culture medium was substituted by a fresh one every 3 4 days and the cells were cultured up to day 14.

[11] = test system: human dermal fibroblasts (HDFs); experiment: BODIPY staining of lipid droplets (Example 7); conditions: induction medium + T3 + Rosiglitazone, compounds 2 μM, day 14, FIG. 7A, 7B
Procedure: as §2, with “each low-molecular-weight” for “each”, “[…]:” for “Pifithrin alpha [p53 inhibitor]: 5 μM • Forskolin (FSK):”, “SB431541: 2 μM • ALK5 inhibitor II: 2” for “PD0325901: 1”, “14. […] The cells were photographed at a magnification of 200 with a fluorescence microscope and the fluorescence intensity was measured.” for “14.”

| Structure (SMILES) | induction efficiency into brown adipocytes (order) [2] | UCP1 gene expression (conversion to brown adipocytes) [2] | UCP1 protein expression by immunostaining (induction into brown adipocytes) [3] | mRNA expression of UCP1 gene (conversion to brown adipocytes) [6] | mRNA expression of AdipoQ gene (conversion to brown adipocytes) [7] | UCP1 protein expression by immunostaining (conversion to brown adipocytes) [8] | Oil Red O staining [9] | also measured |
| --- | --- | --- | --- | --- | --- | --- | --- | --- |
| CC(C)NCC(O)c1ccc(O)c(O)c1 (centres unmarked) [Isoproterenol, isoproterenol] |  |  |  |  |  |  |  | UCP1 mRNA expression on stimulation [1]: more strongly express UCP1 mRNA |
| Cc1cccc(-c2nn3c(c2-c2ccnc4ccc(C(N)=O)cc24)CCC3)n1 [LY2157299, 4-[5,6-dihydro-2-(6-methyl-2-pyridinyl)-4H-pyrrolo[1,2-b]pyrazol-3-yl]-6-quinolinecarboxamide] | second most strong | converted to brown adipocytes strongly expressing UCP1 gene | induced into brown adipocytes expressing UCP1 protein |  |  |  |  | strength of induction of UCP1 expression (order) ([3]; immunostaining day 14, FIG. 16): second most strong; CIDEA gene expression [4]: induced into brown adipocytes expressing UCP1 gene, CIDEA gene and KCNK3 gene; KCNK3 gene expression [4]: induced into brown adipocytes expressing UCP1 gene, CIDEA gene and KCNK3 gene; UCP1 gene expression [4]: induced into brown adipocytes expressing UCP1 gene, CIDEA gene and KCNK3 gene |
| O=C(NOC[C@H](O)CO)c1ccc(F)c(F)c1Nc1ccc(I)cc1F [PD0325901] |  |  |  | induced to brown adipocytes that express mRNA of UCP1 gene | converted to brown adipocytes expressing mRNA of AdipoQ gene | converted to brown adipocytes expressing UCP1 protein |  | mRNA expression of PGC-1alpha gene (conversion to brown adipocytes) [5]: converted to brown adipocytes expressing mRNA of PGC-1alpha gene; change of expression of UCP-1 protein by addition culture ([8]; PD0325901 1 μM or Forskolin 2 μM, day 14, FIG. 8B): increases |
| Cc1ccc(C(=O)Cn2c3c(sc2=N)CCCC3)cc1 [Pifithrin alpha] |  |  |  |  |  |  | hardly observed |  |
| NC(=O)c1ccc(-c2nc(-c3ccc4c(c3)OCO4)c(-c3ccccn3)[nH]2)cc1 [SB431542, 4-[4-(1,3-Benzodioxol-5-yl)-5-(pyridin-2-yl)-1H-imidazol-2-yl]benzamide] | ALK5 inhibitor II>LY2157299>SB431541>D4476 | converted to brown adipocytes strongly expressing UCP1 gene | induced into brown adipocytes expressing UCP1 protein | induced to brown adipocytes that express mRNA of UCP1 gene | converted to brown adipocytes expressing mRNA of AdipoQ gene | converted to brown adipocytes expressing UCP1 protein | Remarkable Oil Red O staining | mRNA expression of CIDEA gene (conversion to brown adipocytes) [10]: converted to brown adipocytes expressing mRNA of CIDEA gene; lipid droplets stained with BODIPY (conversion to brown adipocytes) [11]: converted to brown adipocytes having lipid droplets stained with BODIPY |
